No end group written: not given here.
Assays:
neonatal CMs = experiment: Neonatal cardiomyocyte culture treated with BNP; type: cell-based, mouse
Protocol: Neonatal (1–2 days) C57BL/6 pups were sacrificed and CMs were isolated by enzymatic digestion according to the method previously described. Briefly, the chest was opened and the heart removed. After separation of the atria from the rest of the heart, the ventricles were minced and digested with 0.45 mg/mL collagenase (Worthington, Biochemical Corporation, Lakewood, NJ, USA) and 1 mg/mL pancreatin (Sigma). After 3 rounds of digestion, cells were plated 2 times for 45 min in order to separate CMs (non-adherent cells) from the non-myocyte cells (NMCs). Thereafter, CMs were plated on gelatine (0.1%) coated plates and cultured in 3:1 mixture of DMEM and Medium 199 (Invitrogen Corp, San Diego, CA, USA) supplemented with 10% horse serum (Oxoid), 5% fetal bovine serum (Invitrogen), 10 mM Hepes, 100 U/mL penicillin G. To homogenize the experiment, 70,000 CMs were plated per well.
Immediately after plating, neonatal CMs were treated or not with BNP for 14 days. To inhibit NMC proliferation and to work on 95% pure CMs, cells were exposed the first 7 days of culture to cytosine-β-D-arabinofuranoside (AraC, 1 mg/mL). After 7 days of culture, AraC was removed until 14 days of culture. CMs were cultured in a hypoxia chamber (Stem Cell Technologies) flushed with 3% O2/5% CO2/92% N2 (Carbagas). Indeed, we previously observed that low oxygen concentration stimulates CM dedifferentiation and proliferation. Medium was replaced 1–2 times/week.
CMs were treated with 3 different concentrations of BNP: 10 nM, 100 nM and 1000 nM and compared to untreated cells. Quantitative RT-qPCR, Western blot analysis as well as immunohistochemistry studies were performed after 14 days of culture.

cleaved caspase-3 = experiment: Western blot cleaved caspase-3 in infarct zone; type: in vivo, mouse; details: ZI one day after MI, BNP vs saline
Source text: At sacrifice, mice were weighted, the heart excised and weighted. The apex was embedded into OCT and slowly frozen for immunohistochemistry analysis. For quantitative RT-PCR (qRT-PCR) and/or Western blot analysis, the rest of the heart was quickly frozen in N2. Hearts from infarcted animals were separated into 3 zones for molecular and cellular analysis including CM isolation: (1) the infarction zone (ZI), (2) the border zone (BZ) and (3) the remote zone (RZ). The different areas were processed under microscopy: the ZI area is easily detectable by the color and the presence of the suture, the BZ corresponds to 0.5 mm tissue around the ZI and the rest of the heart is the RZ.
Total proteins were extracted from CMs isolated from adult infarcted and unmanipulated neonatal and adult hearts. Proteins were transferred to nitrocellulose membranes (Biorad) before incubation with primary antibodies overnight at 4 °C. Secondary antibodies were added 1 h at RT in the dark (Supplementary File S1). The signal was detected and quantified with the Odyssey infrared imaging system (LI-COR. Biosciences, Bad Homburg, Germany). All results were normalized to the tubulin protein level or to the total protein level thanks to stainings with the Revert 700 Total protein Stain (LI-COR).

cardiomyocytes (CMs) = experiment: CM nucleation status and cross-sectional area; type: in vivo, mouse; details: vs saline
Protocol: After 25 min sedimentation, CMs were used for molecular analysis, Western blot analysis, flow cytometry analysis or fixed with 2.5% PFA 15 min at room temperature (RT) and stained with DAPI to evaluate the frequency of mono and bi-nucleated CMs.
CM area was assessed by α actinin and laminin stainings and image J software (1.53t version from the 24.08.2022, Mac OX X, Bethesda, MD, USA) for processing using CIF outliner cell Plugin. Only CMs with circularity >0.5 were considered.

Troponin I+ GFP+ cells = experiment: Flow cytometry count of Troponin I+ GFP+ cells in Myh6 MerCreMer hearts; type: in vivo, mouse; details: unmanipulated adult Myh6 MerCreMer mice, tamoxifen then BNP, two weeks after first BNP injection, vs saline
Protocol: Before surgery and/or BNP treatments, adult Myh6 MerCreMer mice (6-week-old) were injected with Tamoxifen (Sigma, Merck, Darmstadt, Germany, T5648) at 40 mg/kg to activate the Cre recombinase. Tamoxifen was dissolved in ethanol to a concentration of 100 mg/mL and emulsified in peanut oil to a final concentration of 10 mg/mL. A total of 1 mg Tamoxifen/25 g body weight was injected intraperitoneally (i.p) to adult mice one time. Two weeks after tamoxifen injection, 90–95% of pre-existing CMs expressed the GFP protein [11].
BNP was injected into infarcted adults, and unmanipulated neonatal and adult mice. Directly after surgery, NaCl (saline) or BNP (1.3 µg/20 g in 20 µL) was injected into the left ventricle cavity. At 24 h after MI, mice were intraperitoneal (ip) injected with BNP (2 µg/20 g mice) or saline every 2 days. C57BL/6 mice were sacrificed 1- and 14 days post-MI and Myh6 MerCreMer mice were sacrificed 14 days post-MI (Figure 1A). […]
Adult CMs were isolated using enzymatic digestion (see above). […] Cells were analyzed with CytoFLEX (Beckmann Coulter) cytometer and data generated using FlowJo 10 software (10.7.1 version, Becton Dickinson and Compagny, Franklin Lakes, NJ, USA). […] Cells were stained with DAPI and only the DAPI negative cells (living cells) were analyzed.

[1] = neonatal CMs in vitro, BNP vs untreated
[2] = neonatal CMs in vitro, BNP vs untreated, 14 days

With “Brain Natriuretic Peptide (SQGSTLRVQQRPQNSKVTHISSCFGHKIDRIGSVSRLGCNALKLL; not fully specified; ends and bridges not checked; UniProt P40753 77-121, looked up) [BNP, synthetic mouse BNP (1–45) peptide (Bachem, catalog number H-7558)]” the “increase of number of CMs in culture” value (neonatal CMs; 10 nM BNP, 14 days, 3% O2, vs untreated) was 18%, the “number of small and mononucleated CMs” value (neonatal CMs; BNP-treated neonatal CM cultures vs untreated) was “higher number” and the “cyclin A2 mRNA increase” value (neonatal CMs; [1]) was 40%. The “cyclin B2 mRNA increase” value (neonatal CMs; [1]) was 30%, the “cyclin D1 mRNA increase” value (neonatal CMs; [1]) was 50% and the “increase of percentage of CMs expressing Aurkb” value (neonatal CMs; [2]) was 50%. The “increase of percentage of CMs expressing Ki67” value (neonatal CMs; [2]) was 23%, the “caspase 3 protein level change” value (cleaved caspase-3) was −42% and the “percentages of mononucleated CMs” value (cardiomyocytes (CMs); all BNP-treated hearts (infarcted, neonatal, adult)) was “increased”. The “frequency of small CMs (cross-sectional area)” value (cardiomyocytes (CMs); all areas of BNP-treated infarcted hearts) was “significantly higher” and the “increase of number of Troponin I+ GFP+ cells” value (Troponin I+ GFP+ cells) was 28%.
